Consider two molecules from patent US11331364B2, “Use for JNK inhibitor molecules for treatment of various diseases” (Xigen Inflammation Ltd., priority 2014, dated 2022).

Square brackets hold non-standard residues; d marks the D form. Peptide text beside a SMILES is read from it.

The conditions of data set [1]: dissolved in 0.9% NaCl, up to 0.4 mg/ml. From the text: To receive three different doses (cf. above, groups table) it has been serially diluted (1:10 fold).
For data set [2], the system named is K5.STAT3C mouse model of psoriasis. In words: K5.STAT3C mouse model of psoriasis, tape stripping, acanthosis. The format is in vivo. To be noted: 5 mg/kg IP QD D0-D5. The method, then:
To this end, two independent experiments are performed, each with at least 15 mice per experiment (5 mice per group). In each experiment, BK5.STAT3C heterozygous transgenic mice (Tg(KRT5-Stat3*A661C*N663C)1Jdg, henceforth referred to as K5.STAT3C mice) were randomly allocated to the following experimental groups 1 and 2, and wild-type littermates were allocated to group 3:
On Day 0, psoriasis is induced by tape striping (12-18 times) the back of the mouse after depilation. To this end, mice were anaesthetized using a Ketamine/Xylazine cocktail (100 mg/kg and 10 mg/kg respectively) intraperitoneally, shaved, depilated and skin injury was applied by 15 gentle strokes of tape stripping. Mice were treated with either vehicle (saline) or XG-104 right before anaesthesia on day 0 and once a day thereafter for 5 days. […]
Animals are weighed once on day 0. […] After termination of the study at day 5, approximately 1 cm^2 skin biopsy (lesions) is collected on the back of each mouse, embedded with Optimal Cutting Temperature (OCT)-containing moulds, frozen on dry ice, sectioned in 6 μm slices using a cryotome and stained with H&E. Epidermal thickness (acanthosis) is histologically measured blinded by two independent experimenters. One slide per mouse and 10 different zones of the sections are measured.

Data set [3] deals with T1, hJNK1 (Homo sapiens, UniProt P45983).
T1 construct: His; purchased Upstate 14-327
Briefly: AlphaScreen assay, inhibition of JNK1 phosphorylation of c-Jun substrate. The format is biochemical. As to conditions: in comparison to L-TAT-IB1; FIG. 4 (JNK1, JNK2, JNK3 AlphaScreen). On the procedure:
In the following a standard operating procedure will be set forth describing how the Inhibitory efficacy of JNK inhibitors according to the present invention was measured. The method allows to measure in vitro, in a non radioactive standardized assay, the ability of a candidate compound to decrease the phosphorylation of the c-Jun specific substrate by JNK. Moreover, it will be illustrated how to determine the inhibitory effect (IC50) and the Ki of a chosen compound for JNK. […] And a person skilled in the art will certainly understand how to adapt the below methods for his specific purposes and needs.
AlphaScreen Reagent and Plate: • His-JNK1 (ref 14-327, Upstate, 10 μg in 100 μl: concentration: 2.2 μM) 5 nM final • His-JNK2 (ref 14-329, Upstate, 10 μg in 100 μl: concentration: 2 μM) 5 nM final • His-JNK3 (ref 14-501, Upstate, 10 μg in 100 μl: concentration: 1.88 μM) 5 nM final • Anti-Phospho-cJun (ref 06-828, Upstate, lot DAM1503356, concentration: 44.5 μM) 10 nM final • Biotin-cJun (29-67): • sequence: Biotin—[…] […]
The bioluminescent energy transfer was read on the Fusion Alpha Plate reader (Perkin Elmer). […]

T1 sequence (P45983 1-384 isoform P45983-2): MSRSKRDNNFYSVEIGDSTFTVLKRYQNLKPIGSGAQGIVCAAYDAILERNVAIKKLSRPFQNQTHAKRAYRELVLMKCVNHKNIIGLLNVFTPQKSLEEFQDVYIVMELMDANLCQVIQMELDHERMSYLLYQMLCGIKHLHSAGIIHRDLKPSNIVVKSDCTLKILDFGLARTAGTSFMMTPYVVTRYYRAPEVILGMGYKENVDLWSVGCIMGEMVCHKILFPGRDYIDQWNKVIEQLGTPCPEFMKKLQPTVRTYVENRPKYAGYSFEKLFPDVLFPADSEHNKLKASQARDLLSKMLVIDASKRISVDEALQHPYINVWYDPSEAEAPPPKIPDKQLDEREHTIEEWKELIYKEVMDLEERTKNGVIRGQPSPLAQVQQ

For the molecule `CC(C)C[C@H](NC(=O)[C@H](CC(N)=O)NC(=O)[C@H](CC(C)C)NC(=O)[C@@H](NC(=O)[C@@H](C)NC(=O)[C@@H]1CCCN1C(=O)[C@H](CCCNC(=N)N)NC(=O)[C@@H](CCCCN)NC(=O)[C@@H]1CCCN1C(=O)[C@H](CCCNC(=N)N)NC(=O)[C@@H](CCCNC(=N)N)NC(=O)[C@H](CCCNC(=N)N)NC(=O)[C@H](CCCNC(=N)N)NC(=O)[C@H](CCC(N)=O)NC(=O)[C@@H](CCCNC(=N)N)NC(=O)[C@H](CCCNC(=N)N)NC(=O)[C@H](CCCCN)NC(=O)[C@H](CCCCN)NC(=O)[C@H](N)CCCNC(=N)N)[C@@H](C)O)C(=O)N[C@H](Cc1ccccc1)C(N)=O` [SEQ ID NO: 172, rKKRrQRRrRPkRPaTLNLf] (H-[dR]KKR[dR]QRR[dR]RP[dK]RP[dA]TLNL[dF]-NH2; N-terminus assumed), the solubility entry in data set [1] was “readily soluble and did not fall out of solution”. Also, in data set [2], the “acanthosis (epidermal thickness)” value is “significantly reduced the acanthosis” and the parakeratosis result is “absence of any parakeratosis”.

With `CC(C)C[C@@H](NC(=O)[C@@H](Cc1ccccc1)NC(=O)[C@H]1CCCN1C(=O)[C@@H](CCC(N)=O)NC(=O)[C@H](NC(=O)[C@H]1CCCN1C(=O)[C@@H](CCCNC(=N)N)NC(=O)[C@@H](CO)NC(=O)[C@@H](CCC(N)=O)NC(=O)[C@H](N)CC(=O)O)C(C)C)C(=O)N[C@H](CC(N)=O)C(=O)N[C@H](CC(C)C)C(=O)N[C@@H](C(=O)N[C@@H](C(=O)N1CCC[C@@H]1C(=O)N[C@H](CCCNC(=N)N)C(=O)N[C@H](CCCCN)C(=O)N1CCC[C@@H]1C(=O)N[C@H](CCCNC(=N)N)C(=O)N1CCC[C@@H]1C(=O)N1CCC[C@@H]1C(=O)N[C@H](CCCNC(=N)N)C(=O)N[C@H](CCCNC(=N)N)C(=O)N[C@H](CCCNC(=N)N)C(=O)N[C@H](CCC(N)=O)C(=O)N[C@H](CCCNC(=N)N)C(=O)N[C@H](CCCNC(=N)N)C(=O)N[C@H](CCCCN)C(=O)N[C@H](CCCCN)C(=O)N[C@H](CCCNC(=N)N)C(=O)NCC(N)=O)[C@H](C)O)[C@H](C)O` [SEQ ID NO: 197, dqsrpvqpflnlttprkprpprrrqrrkkrg, reference compound] (H-[dD][dQ][dS][dR][dP][dV][dQ][dP][dF][dL][dN][dL][dT][dT][dP][dR][dK][dP][dR][dP][dP][dR][dR][dR][dQ][dR][dR][dK][dK][dR]G-NH2), the inhibitory capacity entry in data set [3] is recorded as “significant decrease in inhibitory capacity”.
